pKi: −log10 of the molar value.
What was measured:
[1] = tested on: coagulation in human plasma; test: prothrombin time (PT, Quick value) in human plasma
thrombin = thrombin (Bos taurus, UniProt P00735)
[2] = tested on: coagulation in rat plasma; test: thrombin time in rat plasma after rectal application; format: in vivo
Protocol: After rectal administration of the compounds to be tested, the anticoagulant effect was determined in the plasma of experimental animals.

glandular kallikrein = glandular kallikrein (Sus scrofa, UniProt P00752); test: inhibition of glandular kallikrein, dissociation constant Ki
Sequence of glandular kallikrein (P00752 8-246): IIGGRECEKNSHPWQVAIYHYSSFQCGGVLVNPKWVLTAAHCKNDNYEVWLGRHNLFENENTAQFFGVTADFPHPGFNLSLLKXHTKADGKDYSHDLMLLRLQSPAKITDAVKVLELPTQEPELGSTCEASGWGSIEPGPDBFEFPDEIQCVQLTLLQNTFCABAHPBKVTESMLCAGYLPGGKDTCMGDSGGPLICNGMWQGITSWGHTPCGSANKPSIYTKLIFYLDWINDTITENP

Question: With CC(=O)N1CCN(C(=O)[C@H](Cc2cccc(C(=N)N)c2)NS(=O)(=O)c2ccc3ccccc3c2)CC1.Cl [Compound 2, Nα-(2-naphthylsulfonyl)-(L)-3-amidinophenylalanine-4-acetylpiperazide hydrochloride] as the molecule, how does the “Concentr. to double the Prothrombin time” value [1] read?
Answer: 0.90 µmol/L

Question: What about the “concentration to double the PT” value [1] of the same molecule?
Answer: ≤ 1 μmol/1

Question: And the “thrombin inhibition in words” value (thrombin)?
Answer: potent thrombin inhibitor

Question: And the “Clotting time, Thrombin time” value ([2]; rectal 5 mg/kg, 0 min)?
Answer: 32 s

Question: And the “Clotting time, Thrombin time” value ([2]; rectal 5 mg/kg, 30 min)?
Answer: > 300 s

Question: And the “Clotting time, Thrombin time” value ([2]; rectal 5 mg/kg, 60 min)?
Answer: 224 s

Question: What about the “Clotting time, Thrombin time” value ([2]; rectal 5 mg/kg, 120 min) of the same molecule?
Answer: 176 s

Question: What about the “Clotting time, Thrombin time” value ([2]; rectal 5 mg/kg, 180 min) of the same molecule?
Answer: 107 s

Question: And the “Clotting time, Thrombin time” value ([2]; rectal 20 mg/kg, 0 min)?
Answer: 64 s

Question: What about the “Clotting time, Thrombin time” value ([2]; rectal 20 mg/kg, 30 min) of the same molecule?
Answer: > 300 s

Question: And the “Clotting time, Thrombin time” value ([2]; rectal 20 mg/kg, 60 min)?
Answer: > 300 s

Question: What about the “Clotting time, Thrombin time” value ([2]; rectal 20 mg/kg, 120 min) of the same molecule?
Answer: > 300 s

Question: And the “Clotting time, Thrombin time” value ([2]; rectal 20 mg/kg, 180 min)?
Answer: > 300 s

Question: And the pKi (glandular kallikrein)?
Answer: < 3.00
